The source of these data is patent EP0847397B1, “WATER-SOLUBLE C-RING ANALOGUES OF 20 (S)-CAMPTOTHECIN” (DR. REDDY'S RESEARCH FOUNDATION, priority 1996, dated 1997).

SMILES strings stand for the structures. Values after ≈ are worked out from the molar mass of the structure shown. Some results are limits rather than exact numbers.

Data set [1] is described as follows: MTD in Swiss albino mice (single dose). The conditions noted are these: mouse, in vivo, 14 days observation. The protocol: 1. MTD in Swiss albino mice:
Each Swiss Albino mouse is injected with a single does of the test compound on a day designated as Day 1: Doses that were tested are 400, 200, 100, 50, 25, 12.5, 8.3, 6.25 and 3.13 mg/kg body weight. […] (As per the protocol followed by the U.S. National Cancer Institute)

A short description of data set [2]: Solubility by HPLC method. Particulars: aqueous buffer, 0.1M sodium acetate buffer pH 5.0, 24 hours, room temperature. In kind it is physicochemical. The protocol: 4. Solubility by HPLC method:
Excess of compound was soaked in 0.5 ml of 0.1M sodium acetate buffer at pH 5.0 for 24 hours at room temperature. The solution was filtered through 0.45 micron PVDF syringe filter (Gelman Sciences). The filtrate was injected into HPLC at different volumes (10 & 20 µl). Chromatograms were recorded. Responses recorded were extrapolated from the calibration curve and the solubility of the compound was calculated. (J. Med. Chem., 1995; 38: 400)

Data set [3] in a line: Solubility by routine method. In kind it is physicochemical. Particulars: deionized water, 37°C. The protocol:
5. Solubility by routine method:
Compound was suspended in 5 ml of deionized water and heated to 37°C. for 10 min. Then, the solution was filtered and the filtrate was evaporated to drying using methanol and the solid residue was weighed.

The nature of the next data set: Pharmacokinetics at MTD. The data set is classed as in vivo, Swiss albino mice. Particulars: mouse, ip, intraperitoneal, plasma; for AUC(0-t): DMSO:water (50:50), read-out: AUC0-1. Here is the method:
3. Pharmacokinetics at MTD:
All studies were carried out in Swiss albino mice in the weight range 35-40 g. The animals were fasted overnight prior to dosage of the drug and were fed 3 hours after dosing. The animals were dosed intraperitonially as a solution in DMSO:water (50:50; v/v). Blood samples were drawn from orbital sinus at 1, 2, 4, 6 and 8 hours after administration of the dose into heparinized tubes, centrifuged at 13000 RPM for 10 min. Plasma samples were separated and analyzed by HPLC. To 50 µl of the sample, 100 µl of chilled acidified methanol was added and mixed to precipitate proteins. The sample was centrifuged at 13,000 RPM for 10 min. 100 µl of supernatant was made up to 200 µl with methanol:water (50:50; v/v) and 100 µl was injected on HPLC. Peak area of the drug was used for quantification. Calibration, control and recovery samples were prepared by spiking 50 µl of blank plasma with known amounts of the drug and processed in the same manner as the samples. (J. Natl. Cancer Inst., 1996; 88:817-824).

The next data set has as its system ACHN. In words: In vitro activity after 1 hour exposure (Sulforhodamine B). The data set is classed as cell-based. The conditions noted are these: Homo sapiens, 1 hour exposure then 48 hours drug-free. The protocol: (§1) 6. In vitro activity after 1 hour exposure:
(§2) Grow the cells in 15 ml of Complete Medium (RPM1-1640 with 10% Fetal bovine serum and 0.2% NaHCO3) for 3-5 days to obtain a cell number of 10^6 cells/flask. The medium is removed and the attached cells are washed with Phosphate Buffered Saline (PBS). 1 ml of 0.1% Trypsin-EDTA is added and incubated for 5 min at 37°C. Tap the flasks gently and add 5 ml of complete medium. Remove cell suspension and centrifuge at 2000 rpm for 5 min. Discard the supernatant and suspend the pellet in 5 ml of complete medium. Count the cell number in a haemocytometer. Dilute the cell suspension to 10,000 cells/100 µl in complete medium. Plate out 100 µl of cell suspension in each of 96 well microtitre plate and incubate for 24 hrs at 37°C. and 5% CO2. Terminate the reference blank (plated out separately) with 25 µl of 50% cold Trichloroacetic acid (TCA). Incubate for 1 hour at 4°C. Wash the plate (five times) with deionized water. Air dry and preserve the plate at 4°C. for determination of T0 value. Prepare suitable dilution of the test compound in complete medium and add 100 µl to each well to maintain the final concentration ranging between 10^-4M and 10^-8M. Incubate for 1 hr at 37°C. and 5% CO2. Centrifuge the microtitre plate at 1000 rpm for 5 min. Remove the supernatant. Wash the cells twice with 100 µl of PBS to remove the traces of test compound. Add 200 µl of complete medium to each well and incubate for 48 hours at 37°C. and 5% CO2. Terminate the cell growth with the addition of 50 µl of 50% cold TCA. Incubate the plate for 1 hr at 4°C. Wash the plates with deionized water (five times) and air dry. Add 100 µl of Sulforhodamine B solution (0.4% in 1% acetic acid) to each well. Keep at room temperature for 15 minutes. Wash (five times) with 1% acetic acid and air dry. Add 100 µl of 10mM Trizma base (Sigma), shake gently on plate shaker for 15 minutes and read the optical density at 490 nm in Spectrophotometric plate reader. (as per the protocol followed by the U.S. National Cancer Institute.

The next data set relates to DU-145. The description is as above. In kind it is cell-based. The conditions noted are these: Homo sapiens; DU-145, 1 hour exposure then 48 hours drug-free. The protocol:
as §1, §2

The test system of another data set is HOP-62. The data set is described as above. In kind it is cell-based. Particulars: Homo sapiens; HOP-62, 1 hour exposure then 48 hours drug-free. Here is the method: as §1, §2
For another data set, the system named is MCF-7/ADR. The description is as above. The data set is classed as cell-based. The conditions noted are these: Homo sapiens, NCI/ADR-RES, 1 hour exposure then 48 hours drug-free. The protocol: as §1, §2
A further data set has as its system OVCAR-8. The data set is described as above. The data set is classed as cell-based. The conditions noted are these: Homo sapiens; OVCAR-8, 1 hour exposure then 48 hours drug-free. Here is the method: as §1, §2
For another data set, the system named is SF-268. The data set is described as above. The data set is classed as cell-based. The conditions noted are these: Homo sapiens. Here is the method:
as §1, §2

Another data set relates to UACC-62. The data set is described as above. The data set is classed as cell-based. Particulars: Homo sapiens; UACC-62, 1 hour exposure then 48 hours drug-free. Here is the method: as §1, §2
The subject of a further data set is HT 29. In words: NCI in vitro 60 human tumor cell line assay. The data set is classed as cell-based. The conditions noted are these: Homo sapiens, HT-29, 48 h, read-out: Total Growth Inhibition (TGI).
A further data set deals with H 460. In words: NCI in vitro 60 human tumor cell line assay. The data set is classed as cell-based. The conditions noted are these: Homo sapiens, NCI-H460, 48 h, read-out: Total Growth Inhibition (TGI).
The next data set deals with HCC 2998. As to the kind of experiment: NCI in vitro 60 human tumor cell line assay. The data set is classed as cell-based. The conditions noted are these: Homo sapiens, HCC 2998, 48 h, read-out: Total Growth Inhibition (TGI).
The next data set deals with HCT 15. In words: NCI in vitro 60 human tumor cell line assay. The data set is classed as cell-based. The conditions noted are these: HCT-15, 48 h, read-out: Total Growth Inhibition (TGI).

Experimental for H 460: (§3) Each test compound was screened against a battery of 60 human cell lines obtained from eight organs. In a typical procedure, the cell suspensions that were diluted according to the particular cell type and the expected target cell density (5000-40,000 cells per well based on cell growth characteristics) were added into 96-well microtiter plates. Inoculates were allowed a preincubation period of 24h at 37°C. for stabilization. Dilutions at twice the intended test concentrations were added at time zero in 100-µl aliquots to microtiter plate wells. Usually test compounds were evaluated at five 10-fold dilutions. The highest well concentration used in the test is 10^-4M. The cells are then incubated in the presence of drug (the test compound) for further 48h in 5% CO2 atmosphere and 100% humidity. At the end of this time, the adherent cells are fixed to the plate by means of trichloroacetic acid, and after a number of washes, the cell layer is treated with the protein stain Sulforhodamine B. The optical density which is proportional to protein mass, is then read by automated spectrophotometric plate readers at a wavelength of 515 nm. Readings are transferred to a microcomputer and final reports are generated using especially developed software.
Experimental for HCC 2998: as §3
Experimental for HCT 15: as §3
Experimental for HT 29: as §3

Regarding `CC[C@@]1(O)C(=O)OCc2c1cc1n(c2=O)C(OCCO)c2cc3ccccc3nc2-1` (stereo partly shown) [Example 26, 5-(2'-Hydroxyethoxy)camptothecin], the MTD at 336 h in [1] (intravenous) is 25 to 50 mg/kg; in data set [1] (ip, intraperitoneal) it was 200 mg/kg. In addition, the solubility (commonly how much of the substance goes into solution per volume) at 24 h in data set [2] came to 800 µg/mL (≈ 1.96 mM). Also, in data set [3], the concentration in solution (solubility at 10 min) was 6000 µg/mL (≈ 14.7 mM). The AUC(0-t) in the data set “Pharmacokinetics at MTD” is 562 ± 41.8 µM·h. For the same compound, the Cmax (commonly the maximum level reached in the sampled fluid or tissue) in the data set “Pharmacokinetics at MTD” was found to be 264 ± 21.9 µM. Besides, in “Pharmacokinetics at MTD”, the Tmax (usually the time from dosing to the highest level) turned out to be 1 h. The half-life (as a rule, the time needed for the level to fall by half in the phase considered) in “Pharmacokinetics at MTD” is 1.84 ± 0.3 h. This compound gave a k el in “Pharmacokinetics at MTD” of 0.000106 s⁻¹. Also, the GI50 (usually the concentration at which growth is held to half of that of the control) with ACHN was > 100 µM; with DU-145 it was 50 µM; in the data set with HOP-62, > 100 µM; in the data set on MCF-7/ADR, > 100 µM; with OVCAR-8, > 100 µM; in the data set with SF-268, > 100 µM. The compound further returned a GI50 in the data set on UACC-62 of 0.075 µM. Moreover, the IC (TGI) in the data set on HT 29 is 46 µM; in the data set on H 460, 1 µM; in the data set with HCC 2998 it was 10.5 µM; with HCT 15, 36.3 µM.

Take `CC[C@@]1(O)C(=O)OCc2c1cc1n(c2=O)C(OCC(F)(F)F)c2cc3cc(O)ccc3nc2-1` (stereo partly shown) [Example 27, 10-Hydroxy-5-trifluoroethoxycamptothecin]: the MTD at 336 h is 200 mg/kg in data set [1] (intravenous) and 400 mg/kg in data set [1] (ip, intraperitoneal). In [2], the solubility at 24 h was determined as 500 µg/mL (≈ 1.08 mM). The compound also came in with a solubility at 10 min in data set [3] of 2000 to 3000 µg/mL (≈ 4.33 to 6.49 mM). Also, in “Pharmacokinetics at MTD”, the AUC(0-t) is 23.1 ± 2.7 µM·h. This compound also yielded a Cmax in the data set “Pharmacokinetics at MTD” of 7.4 ± 0.8 µM. Moreover, in the data set “Pharmacokinetics at MTD”, the Tmax stood at 1.33 ± 0.6 h. In “Pharmacokinetics at MTD”, this compound gave a half-life of 2.38 ± 0.2 h. In “Pharmacokinetics at MTD”, this compound showed a k el of 8.06e-05 s⁻¹. The GI50 in the data set with ACHN is 8 µM; in the data set with DU-145, 0.35 µM; in the data set with HOP-62 it was 2 µM; with MCF-7/ADR it was 60 µM; with OVCAR-8 it was 75 µM; in the data set on SF-268, > 100 µM. In the data set with UACC-62, this compound came in with a GI50 of 9 µM. Besides, the IC (TGI) stood at 2.41 µM in the data set on HT 29, 5.09 µM in the data set on H 460, 7.67 µM in the data set on HCC 2998 and 20 µM in the data set on HCT 15.
